Laboratory results reported in patent US6930115B2, “Antitumor effect potentiators” (Mitsubishi Pharma Corporation, priority 2000, dated 2005).

Experiments:
[1] = system: mouse B16-F10 melanoma cultured cells; test: Hematogenous pulmonary metastasis after transplantation of mouse B16-F10 melanoma cultured cells into tail vein; type: in vivo; conditions: alone
Description: • (1) Preparation of mouse B16-F10 melanoma cultured cells (hereinafter simply B16-F10) B16-F10 cells (a permission to use was obtained from US M.D. Anderson Cancer Center, Dr. I. Fidler and provided for use from Japanese Foundation for cancer research·cancer chemotherapy center, Dr. […] For experiment, B16-F10 cells were suspended in MEM at 5×10^5 cells/mL and 0.2 mL thereof was transferred into the tail vein of 8-week-old male C57BL/6 mice (8 per group). […] Alzet, model 1002, flow rate […], for use for 14 days), and the osmotic pump was intraperitoneally transplanted into the mice one day before the transplantation of B16-F10 cells. • (3) As regards cisplatin, a preparation for injection (product name: Randa injection) was diluted with physiological saline and intraperitoneally administered once the day after transplantation of B16-F10 cells. As regards etoposide, a preparation for injection (product name: […] injection) was diluted with physiological saline and repeatedly administered intraperitoneally once a day for 5 days starting from one day after transplantation of B16-F10 cells. Paclitaxel was purchased from Sigma chemicals Co., suspended in 0.5% metolose solution and repeatedly administered intraperitoneally once every other day (3 times/week for 2 weeks) starting from one day after transplantation of B16-F10 cells. […] In addition, the values of combination index (CI) of the action in concomitant use analyzed by Median Effect Analysis (References and [2]) with regard to the combination group of the compound of the present invention and the anticancer agent are summarized in Table 3 and Table 6.

[2] = system: Mouse melanoma B16-F10 cells; test: Measurement of cell growth activity (MTT), in vitro growth of B16-F10 cells; type: cell-based; conditions: 72 hr culture, MTT
Description: Mouse melanoma B16-F10 cells (the aforementioned) were cultured in MEM supplemented with 2 mM L-glutamine, 1 mM MEM non-essential amino acids, 1% MEM vitamins, 1 mM pyruvic acid and 5% FCS, and the cells were scraped off from the culture flask every 3-4 days with a cell scraper (No. 3010, manufactured by Coaster), diluted 10-fold and maintained by subculture. In the experiment examining the effect of the test substance on the cell growth, the B16-F10 cells maintained in vitro by subculture were recovered with a cell scraper, suspended in MEM supplemented with 10% FCS at 2×10^5 cells/mL and added to a 96 well microtest plate (Becton Dickinson) at 1×10^4 cells/50 μL/well. Furthermore, 50 μL of a test substance at a 2-fold concentration of the final concentration was added to the well, and cultured in a CO2 incubator (MCO-175, SANYO Electric Co., Ltd.) at 37° C., 5% CO2 95% air for 72 hr.
After culture, 10 mg/mL of MTT [(3-[4,5-Dimethylthiazol-2-yl]-2,5-diphenyl-tetrazolium bromide)] was added at 10 μL/well, which was followed by culture for 3 hr. Thereafter, 100 μL of 10% SDS (sodium dodecylsulfate)—0.01N HCl was added to dissolve the pigment and absorbance at 570 nm was measured with a multilabel counter (1420 ARVO SX, Pharmacia Biotech Corporation). According to the concentration of the test substance, each well was expressed by absorbance, and average value and standard error. Using the well, to which the medium alone was added, as a control, the growth inhibition rate was calculated according to the following formula. [formula] Analysis method: Based on the dose reaction curves of the inventive compound alone treatment group and cisplatin alone treatment group, the combination index (CI) of the action in concomitant use is calculated by median effect analysis (References and [2]). (Results)

## N.N.[Cl][Pt][Cl] [cisplatin, reference compound]
[1]; Table 1, cisplatin 0.5 mg/kg intraperitoneally once, 14 days after cell transfer
  T/C±standard error (average number of pulmonary metastatic colonies of administration group/control group ×100): 80.2 ± 13.2%
[1]; Table 1, cisplatin 1 mg/kg intraperitoneally once, 14 days after cell transfer
  T/C±standard error (average number of pulmonary metastatic colonies of administration group/control group ×100): 66.5 ± 8.3%
[1]; Table 1, cisplatin 2.5 mg/kg intraperitoneally once, 14 days after cell transfer
  T/C±standard error (average number of pulmonary metastatic colonies of administration group/control group ×100): 57.5 ± 3.0%
[1]; Table 1, cisplatin 5 mg/kg intraperitoneally once, 14 days after cell transfer
  T/C±standard error (average number of pulmonary metastatic colonies of administration group/control group ×100): 53.3 ± 4.5%
[1]; Table 1, cisplatin 10 mg/kg intraperitoneally once, 14 days after cell transfer
  T/C±standard error (average number of pulmonary metastatic colonies of administration group/control group ×100): 46.7 ± 4.1%
[1]; Table 2, cisplatin 0.5 mg/kg intraperitoneally once, 14 days after cell transfer
  T/C±standard error (average number of pulmonary metastatic colonies of administration group/control group ×100): 81.7 ± 13.4%
[1]; Table 2, cisplatin 1 mg/kg intraperitoneally once, 14 days after cell transfer
  T/C±standard error (average number of pulmonary metastatic colonies of administration group/control group ×100): 67.7 ± 8.4%
[1]; Table 2, cisplatin 2.5 mg/kg intraperitoneally once, 14 days after cell transfer
  T/C±standard error (average number of pulmonary metastatic colonies of administration group/control group ×100): 58.6 ± 3.0%
[1]; Table 2, cisplatin 5 mg/kg intraperitoneally once, 14 days after cell transfer
  T/C±standard error (average number of pulmonary metastatic colonies of administration group/control group ×100): 54.3 ± 4.6%
[1]; Table 2, cisplatin 10 mg/kg intraperitoneally once, 14 days after cell transfer
  T/C±standard error (average number of pulmonary metastatic colonies of administration group/control group ×100): 30.8 ± 4.7%
[2]; cisplatin 10 μM alone
  average growth suppression rate ± standard error: 5.813 ± 1.510%
[2]; cisplatin 30 μM alone
  average growth suppression rate ± standard error: 29.609 ± 4.503%
[2]; cisplatin 100 μM alone
  average growth suppression rate ± standard error: 96.631 ± 0.109%

## COc1cc([C@@H]2c3cc4c(cc3[C@@H](O[C@@H]3O[C@@H]5CO[C@@H](C)O[C@H]5[C@H](O)[C@H]3O)[C@H]3COC(=O)[C@H]23)OCO4)cc(OC)c1O [etoposide, reference compound]
[1]; Table 4, etoposide 1 mg/kg intraperitoneally once a day for 5 days
  T/C±standard error (average number of pulmonary metastatic colonies of administration group/control group ×100): 56.0 ± 3.0%
[1]; Table 4, etoposide 2.5 mg/kg intraperitoneally once a day for 5 days
  T/C±standard error (average number of pulmonary metastatic colonies of administration group/control group ×100): 34.0 ± 7.4%
[1]; Table 4, etoposide 5 mg/kg intraperitoneally once a day for 5 days
  T/C±standard error (average number of pulmonary metastatic colonies of administration group/control group ×100): 33.4 ± 4.0%
[1]; Table 4, etoposide 10 mg/kg intraperitoneally once a day for 5 days
  T/C±standard error (average number of pulmonary metastatic colonies of administration group/control group ×100): 22.5 ± 4.2%
[1]; Table 4, etoposide 25 mg/kg intraperitoneally once a day for 5 days
  T/C±standard error (average number of pulmonary metastatic colonies of administration group/control group ×100): 14.5 ± 2.6%

## CC(=O)O[C@H]1C(=O)[C@@]2(C)[C@H]([C@H](OC(=O)c3ccccc3)[C@]3(O)C[C@H](OC(=O)[C@H](O)[C@@H](NC(=O)c4ccccc4)c4ccccc4)C(C)=C1C3(C)C)[C@]1(OC(C)=O)CO[C@@H]1C[C@@H]2O [paclitaxel, reference compound]
[1]; Table 5, paclitaxel 1 mg/kg intraperitoneally once every other day (3 times/week for 2 weeks)
  T/C±standard error (average number of pulmonary metastatic colonies of administration group/control group ×100): 75.9 ± 5.9%
[1]; Table 5, paclitaxel 2.5 mg/kg intraperitoneally once every other day (3 times/week for 2 weeks)
  T/C±standard error (average number of pulmonary metastatic colonies of administration group/control group ×100): 48.8 ± 8.4%
[1]; Table 5, paclitaxel 5 mg/kg intraperitoneally once every other day (3 times/week for 2 weeks)
  T/C±standard error (average number of pulmonary metastatic colonies of administration group/control group ×100): 37.3 ± 4.0%
[1]; Table 5, paclitaxel 10 mg/kg intraperitoneally once every other day (3 times/week for 2 weeks)
  T/C±standard error (average number of pulmonary metastatic colonies of administration group/control group ×100): 30.3 ± 3.6%
[1]; Table 5, paclitaxel 25 mg/kg intraperitoneally once every other day (3 times/week for 2 weeks)
  T/C±standard error (average number of pulmonary metastatic colonies of administration group/control group ×100): 31.5 ± 7.2%
